Experimental data taken from ChEMBL document CHEMBL3228009, “Hypobetalipoproteinemic agents. 2. Compounds related to 4-(1-adamantyloxy)aniline” (J Med Chem, 1979).

Tests used:
Rattus norvegicus [1] = test: Hypobetalipoproteinemic activity in diet-induced hypercholesteremic rat model assessed as decrease in total serum cholesterol at 50 mg/kg, po relative to control; assay type: functional
Rattus norvegicus [2] = test: Hypobetalipoproteinemic activity in diet-induced hypercholesteremic rat model assessed as decrease in heparin precipitating lipoproteins at 50 mg/kg, po relative to control; assay type: functional
Rattus norvegicus [3] = species on record: Rattus norvegicus; test: Selectivity ratio of T/C for heparin precipitating lipoproteins to T/C for total serum cholesterol in diet-induced hypercholesteremic rat model; assay type: functional
Rattus norvegicus [4] = test: Toxicity in diet-induced hypercholesteremic rat model assessed as increase in body weight at 50 mg/kg, po relative to control; assay type: organism-based; design: dose 50 mg/kg, route oral; details: in vivo
Rattus norvegicus [5] = test: Toxicity in diet-induced hypercholesteremic rat model assessed as increase in food intake at 50 mg/kg, po relative to control; assay type: organism-based; design: dose 50 mg/kg, route oral; details: in vivo

SMILES | T/C (Rattus norvegicus [1]) | T/C (Rattus norvegicus [2]) | Selectivity ratio (Rattus norvegicus [3]) | Activity (Rattus norvegicus [4]) | Activity (Rattus norvegicus [5])
c1cc(N2CCCC2)ccc1CC12CC3CC(CC(C3)C1)C2 | 0.82 | 0.87 | 1.06 | > 63% | > 73%
CC(=O)Nc1ccc(OC23CC4CC(CC(C4)C2)C3)c(F)c1 | 1.15 | 1.07 | 0.93 | > 63% | > 73%
CC(=O)Nc1ccc(N(C(C)=O)C23CC4CC(CC(C4)C2)C3)cc1 | 1 | 0.98 | 0.98 | > 63% | > 73%
CCCCCCCCN(C)c1ccc(OC23CC4CC(CC(C4)C2)C3)cc1.Cl | 1.15 | 1.04 | 0.91 | > 63% | > 73%
c1cc(N2CCCC2)ccc1SC12CC3CC(CC(C3)C1)C2 | 0.83 | 0.95 | 1.14 | > 63% | > 73%
c1cc(C23CC4CC(CC(C4)C2)C3)ccc1N1CCCC1 | 1.17 | 0.9 | 0.77 | > 63% | > 73%
CN(C)CCCN(C)c1ccc(OC23CC4CC(CC(C4)C2)C3)cc1.Cl | 0.98 | 0.99 | 1.01 | > 63% | > 73%
c1cc(N2CCOCC2)ccc1OC12CC3CC(CC(C3)C1)C2 | 0.92 | 0.87 | 0.94 | > 63% | > 73%
CNc1ccc(OC23CC4CC(CC(C4)C2)C3)cc1.Cl | 0.52 | 0.32 | 0.63 | > 63% | > 73%
CNc1ccc(CC23CC4CC(CC(C4)C2)C3)cc1.Cl | 0.55 | 0.45 | 0.82 | > 63% | > 73%
Nc1ccc(OC2C3CC4CC(C3)CC2C4)cc1 (stereo not given) | 0.82 | 0.67 | 0.82 | > 63% | > 73%
Nc1ccc(O)cc1 [4-AMINOPHENOL] | 0.94 | 0.98 | 1.04 | > 63% | > 73%
OC12CC3CC(CC(C3)C1)C2 | 0.94 | 0.98 | 1.04 | > 63% | > 73%
CSCc1cc(OC23CC4CC(CC(C4)C2)C3)cc(C)c1N | 0.88 | 0.85 | 0.96 | > 63% | > 73%
Cc1cc(OC23CC4CC(CC(C4)C2)C3)ccc1N | 0.64 | 0.25 | 0.38 | < 63% | < 73%
Clc1cc(N2CCCC2)ccc1OC12CC3CC(CC(C3)C1)C2 | 1.08 | 1.07 | 0.98 | > 63% | > 73%
CN(C)c1ccc(OC23CC4CC(CC(C4)C2)C3)cc1.Cl | 0.46 | 0.34 | 0.73 | > 63% | > 73%
O=CNc1ccc(OC23CC4CC(CC(C4)C2)C3)cc1 | 0.71 | 0.78 | 1.09 | > 63% | > 73%
S=C(Nc1ccc(OC23CC4CC(CC(C4)C2)C3)cc1)NC12CC3CC(CC(C3)C1)C2 | 0.88 | 0.91 | 1.03 | > 63% | > 73%
CN(CCc1ccccc1)c1ccc(OC23CC4CC(CC(C4)C2)C3)cc1.Cl | 1.09 | 1.07 | 0.98 | > 63% | > 73%
CN(CCN1CCCC1)c1ccc(OC23CC4CC(CC(C4)C2)C3)cc1.Cl | 1.26 | 1.22 | 0.97 | > 63% | > 73%
c1cc(N2CCCCC2)ccc1OC12CC3CC(CC(C3)C1)C2 | 0.44 | 0.25 | 0.58 | > 63% | > 73%
Nc1ccc(OC23CCC(CC2)CC3)cc1 | 0.8 | 0.72 | 0.9 | > 63% | > 73%
CCOC(=O)Nc1ccc(OC23CC4CC(CC(C4)C2)C3)cc1 | 0.57 | 0.42 | 0.74 | > 63% | > 73%

SMILES | T/C (Rattus norvegicus [1]) | T/C (Rattus norvegicus [2]) | Selectivity ratio (Rattus norvegicus [3]) | Activity (Rattus norvegicus [4]) | Activity (Rattus norvegicus [5])
Nc1ccc(OC23CC4CC(CC(C4)C2)C3)cc1F | 0.35 | 0.24 | 0.68 | > 63% | > 73%
CSCc1cc(OC23CC4CC(CC(C4)C2)C3)ccc1N | 0.49 | 0.38 | 0.76 | > 63% | > 73%
c1ccc(N2CCCC2)c(CC23CC4CC(CC(C4)C2)C3)c1 | 1.39 | 1.4 | 1.01 | > 63% | > 73%
CN(c1ccc(N)cc1)C12CC3CC(CC(C3)C1)C2.Cl | 0.84 | 0.82 | 0.98 | < 63% | < 73%
Nc1ccc(S(=O)(=O)C23CC4CC(CC(C4)C2)C3)cc1 | 1.12 | 1.07 | 0.95 | > 63% | > 73%
c1cc(N2CCCC2)ccc1OC1C2CC3CC(C2)CC1C3 (stereo not given) | 1.07 | 1.07 | 1.01 | > 63% | > 73%
Nc1ccc(OC23CC4CC(CC(C4)C2)C3)c(F)c1 | 0.57 | 0.52 | 0.92 | > 63% | > 73%
Nc1ccc(NC23CC4CC(CC(C4)C2)C3)cc1 | 0.94 | 0.85 | 0.9 | < 63% | > 73%
CC(=O)Nc1ccc(OC23CC4CC(CC(C4)C2)C3)cc1 | 0.66 | 0.5 | 0.76 | > 63% | > 73%
Cc1cc(OC23CC4CC(CC(C4)C2)C3)cc(C)c1N1CCCC1 | 1.18 | 1.28 | 1.08 | > 63% | > 73%
Fc1cc(OC23CC4CC(CC(C4)C2)C3)ccc1N1CCCC1 | 0.58 | 0.3 | 0.51 | > 63% | > 73%
CS(=O)(=O)Nc1ccc(OC23CC4CC(CC(C4)C2)C3)cc1 | 1.51 | 1.3 | 0.85 | > 63% | > 73%
c1cc(N2CCCC2)ccc1OC12CC3CC(CC(C3)C1)C2 | 0.65 | 0.52 | 0.8 | > 63% | > 73%
Cc1cc(N2CCCC2)cc(C)c1OC12CC3CC(CC(C3)C1)C2 | 0.81 | 0.78 | 0.96 | > 63% | > 73%
Nc1ccc(OC23CC4CC(CC(C4)C2)C3)cc1 | 0.54 | 0.35 | 0.65 | > 63% | > 73%
CC(=O)Nc1ccc(OC23CC4CC(CC(C4)C2)C3)cc1F | 0.62 | 0.35 | 0.55 | > 63% | > 73%
CC1(Oc2ccc(N3CCCC3)cc2)C2CC3CC(C2)CC1C3 (stereo not given) | 1.04 | 1.03 | 0.99 | > 63% | > 73%
Cl.Nc1ccc(OC23CC4CC(CC(C4)C2)C3)c(Cl)c1 | 0.63 | 0.43 | 0.68 | > 63% | > 73%
CN(CCO)c1ccc(OC23CC4CC(CC(C4)C2)C3)cc1 | 0.63 | 0.55 | 0.88 | > 63% | > 73%
CN(c1ccc(N2CCCC2)cc1)C12CC3CC(CC(C3)C1)C2 | 0.93 | 1.02 | 1.1 | < 63% | > 73%
CNc1ccc(OC2C3CC4CC(C3)CC2C4)cc1.Cl (stereo not given) | 0.83 | 0.87 | 1.04 | > 63% | > 73%
CCNc1ccc(OC23CC4CC(CC(C4)C2)C3)cc1.Cl | 0.49 | 0.36 | 0.72 | > 63% | > 73%
CC1(Oc2ccc(N)cc2)C2CC3CC(C2)CC1C3 (stereo not given) | 0.58 | 0.45 | 0.77 | < 63% | > 73%
O=C(Nc1ccccc1)Nc1ccc(OC23CC4CC(CC(C4)C2)C3)cc1 | 1.18 | 1.23 | 1.05 | > 63% | > 73%
